Measurements as given in US7524871B2, “Thrombin inhibitors” (University of Ljubljana, Faculty of Pharmacy, priority 2001, dated 2009).
pKi: −log10 of the molar value. Read-outs that look alike come from different tables or passages of the source.

Legend:
[1] = molecular target: T1, human thrombin (Homo sapiens, UniProt P00734); assay: Enzyme assay for determination of the activity of thrombin inhibitors (chromogenic substrate S-2238); format: biochemical
T1 construct: Thrombin (human thrombin, 308 NIH units, Sigma); purchased Sigma
Experimental: I. Enzyme Assay for Determination of the Activity of Thrombin Inhibitors
Thrombin cleaves amide bonds in a synthetic chromogenic substrate whereby […] coloured p-nitroaniline (p-NA) is released. The amount of p-NA produced is directly proportionate to the absorbance measured at a wavelength of 405 nm using a spectrophotometer. When thrombin inhibitor is added, the amidolytic activity of the enzyme decreases. The potency of the inhibitor is expressed by the inhibition constant (Ki).
The stock solution is pipetted into 0.5 mL aliquots and stored at −70° C. Immediately before use a working solution of thrombin of […] is prepared with HBSA buffer. The final concentration of thrombin in a microtiter plate is 0.5 NIH units/mL.
1 mM substrate solution is prepared, pipetted into 0.5 mL aliquots and stored at −20° C. Before use, 160 and 80 μM substrate solutions of the substrate are prepared with distilled water.
(§1) HBSA buffer, pH 7.5: 10 mM Hepes buffer (HEPES, Sigma), 150 mM NaCl and 0.1% (w/v) bovine serum albumin (98% bovine serum albumin, Sigma) are dissolved in bidistilled water. The pH is adjusted with 0.1 M NaOH solution.
Working solutions (final concentrations within the range 10 to 100 μM) are prepared with distilled water.
Measurements are carried out in the microtiter plate. 50 μL HBSA buffer, 50 μL inhibitor solution of different concentrations (for control 50 μL HBSA buffer) and 50 μL of thrombin solution are pipetted into the wells of a microtiter plate. The plate is incubated at a temperature of 25° C. for 15 minutes. After incubation 50 μL of the chromogenic substrate is added and the microtiter plate is placed in the spectrophotometer (Tecan, Sunrise).
(§2) Each measurement is carried out in triplicate and the result is the averaged value of three measurements.
(§3) 4. Determination of the Inhibition Constant (Ki)
Initial velocities of the reaction in the presence and absence of the inhibitor are measured. The change in the absorbance in the time unit (v) is calculated from the initial, linear part of the reaction. For competitive inhibitors it holds that
[formula] and it follows that
[formula] I=inhibitor concentration, S=substrate concentration, Km=Michaelis constant, vo=initial velocity of the reaction in the absence of inhibitor, vi=initial velocity of the reaction in the presence of inhibitor.
Measurements are carried out with two concentrations of the inhibitor and two concentrations of the substrate.

[2] = molecular target: T2, Trypsin (bovine) (Bos taurus, UniProt P00760); assay: Determination of selectivity of the inhibitor activity against thrombin with respect to trypsin inhibition (chromogenic substrate S-2222); format: biochemical; details: for pKi: bovine trypsin 1 mU/mL, S-2222 100 and 50 μM, HBSA buffer pH 7.5; for Ki trypsin/ Ki thrombin: selectivity, ratio of Ki for trypsin to Ki for thrombin
T2 construct: purchased Sigma
T2 sequence (P00760 24-246): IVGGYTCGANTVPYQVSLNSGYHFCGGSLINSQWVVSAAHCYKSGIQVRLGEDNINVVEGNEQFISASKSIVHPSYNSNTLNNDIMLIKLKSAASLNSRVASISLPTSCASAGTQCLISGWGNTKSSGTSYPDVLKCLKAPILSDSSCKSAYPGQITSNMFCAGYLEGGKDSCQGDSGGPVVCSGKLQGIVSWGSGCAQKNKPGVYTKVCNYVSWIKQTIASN
Experimental: II. Determination of Selectivity of the Inhibitor Activity Against Thrombin with Respect to Trypsin Inhibition
The inhibitory activity against thrombin is determined as described above. Trypsin inhibition is measured in the same manner as in determination of inhibitory activity for thrombin except that a different chromogenic substrate is used. For both enzymes Ki is calculated. Selectivity of the inhibitor is expressed as a ratio of Ki for trypsin to Ki for thrombin.
Trypsin (bovine, 6000 BAEE Units/mg protein, Sigma): A stock solution of trypsin with the activity of 300 U/mL is prepared, pipetted into 0.2 mL aliquots and stored at −70° C. Immediately before use, the stock solution is thawed and a working solution of 4 mU/mL is prepared with HBSA buffer. The final trypsin activity in a microtiter plate is 1 mU/mL.
Before use the stock solution is thawed and 400 and 200 μM substrate solutions are prepared The final concentrations of the substrate in the reaction mixture are 100 and 50 μM.
as §1
Working solutions (final concentrations in the range from 10 to 600 μM) are prepared with distilled water.
as §2
The procedure is the same as the procedure described for determination of the inhibitory activity against thrombin. The concentrations of the reagents described for determination of the inhibitory activity with respect to trypsin are used.
as §3
It is determined in the same manner as determination of Ki for thrombin.
5. Determination of the Selectivity
Ki for thrombin and Ki for trypsin are determined. The selectivity is defined as the ratio: […]

[3] = human thrombin 0.5 NIH units/mL, S-2238 40 and 20 μM, HBSA buffer pH 7.5, 25° C., read-out: Ki thrombin

Row | SMILES | pKi [1, 3] | pKi [2] | Ki trypsin/ Ki thrombin [2] | pKi [1]
1 | Cc1ccc(NCCc2ccccc2)c(=O)n1CC(=O)NCC1CCc2n[nH]cc2C1 (stereo not drawn) | 6.09 | 3.38 | 526 | –
2 | CCCCS(=O)(=O)Nc1ccc(C)n(CC(=O)NC2CCc3nc(N)sc3C2)c1=O (stereo not drawn) | 5.89 | 4.30 | 37 | –
3 | Cc1ccc(NS(=O)(=O)Cc2ccccc2)c(=O)n1CC(=O)NCC1CCc2n[nH]cc2C1 (stereo not drawn) | 6.68 | 3.42 | 1790 | –
4 | Cc1ccc(NS(=O)(=O)Cc2ccccc2)c(=O)n1CC(=O)NC1CCc2nc(N)sc2C1 (stereo not drawn) | 6.80 | 3.59 | 1625 | –
5 | Cc1ccc(NS(=O)(=O)Cc2ccc(F)cc2Cl)c(=O)n1CC(=O)NCC1CCc2n[nH]cc2C1 (stereo not drawn) | 6.80 | < 3.52 | >1875 | –
6 | Cc1ccc(NCCc2ccccc2)c(=O)n1CC(=O)NC1CCc2nc(N)sc2C1 (stereo not drawn) | 6.16 | 3.83 | 213 | –
7 | Cc1ccc(NS(=O)(=O)Cc2ccccc2)c(=O)n1CC(=O)NC1CCc2n[nH]cc2C1 (stereo not drawn) | 5.33 | 3.36 | 93 | –
8 | Cc1ccc(NS(=O)(=O)Cc2cccc(C(F)(F)F)c2)c(=O)n1CC(=O)NC1CCc2nc(N)sc2C1 (stereo not drawn) | 6.19 | < 3.70 | >300 | –
9 | Cc1ccc(NS(=O)(=O)Cc2ccc(F)cc2Cl)c(=O)n1CC(=O)NC1CCc2nc(N)sc2C1 (stereo not drawn) | – | 3.71 | 1097 | 6.80
